Data as given in patent publication US20070249822A1, “Photolabile Coumarinylmethyl Esters of Cyclic Nucleotides, Methods for their Preparation and Their Use” (Forschungsverbund Berlin E.V., priority 2000, published 2007).
Values belong to the molecule of their own block, whether it stands above or below them.

Experiments:
[1] = cited from earlier work
[2] = system: olfactory cGMP-dependent cation channel; assay: Activation of the olfactory cGMP-dependent cation channel upon photolysis of caged cGMP; format: cell-based; conditions: for activation of the olfactory cGMP-dependent cation channel upon photolysis: HEPES buffer
Excerpt: The new photolabile cGMP and cAMP esters can be used successfully in the investigation of cyclic nucleotide-controlled processes.

[3] = cited from earlier work; remark: listed apart in the source
[4] = system: cyclic nucleotide-dependent ion channel CNCα3 (from olfactory cells); assay: Whole cell measurements on HEK293 cells: activation of CNCα3 by photolytic liberation of cAMP; format: cell-based; conditions: axial form, 500 μM intracellular solution, UV flashes 10 to 200 ms; versus 200 μM DMN-caged cGMP on CNCα2, equal exposures
Excerpt: Activation of Cyclic Nucleotide-Dependent Ion Channels by Photolytic Liberation of Cyclic Nucleotides from the Corresponding Caged Compounds
Using whole cell measurements on HEK293 cells, the activation of the cyclic nucleotide-dependent ion channel CNCα3 (from olfactory cells) by photolytic liberation of cAMP from the axial form of the compound of Example 1 ([…]) and of the cyclic nucleotide-dependent ion channel CNCα2 (from rod photoreceptors) by photolytic liberation of cGMP from the axial form of 4,5-dimethoxy-2-nitrobenzyl ester of cGMP [DMN-caged cGMP, produced according to J. M. Nerbonne, S. Richard, J. Nargeot, H. A. Lester, Nature 310, 74 (1984)] was investigated comparatively by electrophysiological means.

[5] = Solubility of coumarinylmethyl-caged cyclic nucleotides in acetonitrile/HEPES buffer (saturation concentration by HPLC); format: physicochemical; conditions: acetonitrile/HEPES buffer (5:95), pH 7.2, room temperature
Procedure: Comparison of the Solubilities of Miscellaneous coumarinyl-methyl-caged Cyclic Nucleotides in Acetonitrile/HEPES Buffer (5:95) at pH 7.2 and Room Temperature
A suspension of the compounds in the specified solvent was treated for 5 min in an ultrasonic bath, undissolved components were removed by centrifugation, and the concentration in the solution was determined using HPLC. The following saturation concentrations were determined: […]

Molecule: COc1ccc2c(COP3(=O)OCC4OC(n5cnc6c(N)ncnc65)C(O)C4O3)cc(=O)oc2c1 (single isomer, unassigned) [equatorial isomer of the (7-methoxycoumarin-4-yl)methyl ester of cAMP, (7-methoxycoumarin-4-yl)methyl ester of cAMP]
- hydrolytic halflife ([1]; Ringer's solution): 60 h

Molecule: COc1ccc2c(COP3(=O)OCC4OC(n5cnc6c(=O)[nH]c(N)nc65)C(O)C4O3)cc(=O)oc2c1 (stereo not drawn) [7-methoxycoumarinylmethyl-caged cGMP]
- activation of the olfactory cGMP-dependent cation channel upon photolysis [2]: not more than partially

Molecule: Nc1ncnc2c1ncn2C1OC2COP(=O)(OCc3ccc4c(c3)C(=O)c3ccccc3C4=O)OC2C1O (stereo not drawn) [(anthraquinon-2-yl)methyl ester of cAMP]
- solubility in aqueous buffer solutions [3]: insufficient solubility

Molecule: Nc1ncnc2c1ncn2C1OC2COP(=O)(OCc3ccc4ccccc4c3)OC2C1O (stereo not drawn) [(naphth-2-yl)methyl ester of cAMP]
- solubility in aqueous buffer solutions [3]: insufficient solubility

Molecule: Nc1nc2c(ncn2C2OC3COP(=O)(OCc4cc(=O)oc5cc(OCC(=O)O)c(OCC(=O)O)cc45)OC3C2O)c(=O)[nH]1 (stereo not drawn) [Compound 10, [6,7-bis(carboxymethoxy)coumarin-4-yl]methyl ester of cGMP]
- amount of incident light for comparable activation of the channel ([2]; 333 nm, compared to the 4,5-dimethoxy-2-nitro-benzyl ester of cGMP): substantially smaller amounts of incident light

Molecule: Nc1ncnc2c1ncn2C1OC2COP(=O)(OCc3cc(=O)oc4cc(OCC(=O)O)c(OCC(=O)O)cc34)OC2C1O (stereo not drawn) [Example 1, [6,7-Bis(carboxymethoxy)coumarin-4-yl]methyl ester of cAMP]
- concentration of liberated cyclic nucleotide [4]: substantially higher concentrations of liberated cyclic nucleotide

Molecule: Nc1nc2c(ncn2C2OC3COP(=O)(OCc4cc(=O)oc5cc(OCC(=O)O)ccc45)OC3C2O)c(=O)[nH]1 (stereo not drawn) [Example 3]
- activation of the olfactory cGMP-dependent cation channel upon photolysis [2]: complete activation

- saturation concentration [5]: > 100 µM
Molecule: Nc1nc2c(ncn2C2OC3COP(=O)(OCc4cc(=O)oc5cc(OCC(=O)O)c(OCC(=O)O)cc45)OC3C2O)c(=O)[nH]1 (stereo not drawn) [[6,7-Bis(carboxymethoxy)coumarin-4-yl]methyl-caged cGMP (equ]

- saturation concentration [5]: 900 µM
Molecule: Nc1ncnc2c1ncn2C1OC2COP(=O)(OCc3cc(=O)oc4cc(OCC(=O)O)ccc34)OC2C1O (stereo not drawn) [[7-(Carboxymethoxy)coumarin-4-yl]methyl-caged cAMP (axial)]

Molecule: Nc1ncnc2c1ncn2C1OC2COP(=O)(OC(C(=O)c3ccccc3)c3ccccc3)OC2C1O (stereo not drawn) [desyl ester of cAMP]
- sensitivity to solvolysis ([1]; aqueous buffer solutions): sensitive to solvolysis

- saturation concentration [5]: 40 µM
Molecule: (7-Methoxycoumarin-4-yl)methyl-caged 8-Br-cGMP [(7-Methoxycoumarin-4-yl)methyl-caged 8-Br-cGMP (axial)]

- saturation concentration [5]: 20 µM
Molecule: (7-Methoxycoumarin-4-yl)methyl-caged 8-Br-cGMP [(7-Methoxycoumarin-4-yl)methyl-caged 8-Br-cGMP (equatorial)]

- saturation concentration [5]: 15 µM
Molecule: (7-Methoxycoumarin-4-yl)methyl-caged cAMP

- saturation concentration [5]: 15 µM
Molecule: (7-Methoxycoumarin-4-yl)methyl-caged cGMP [(7-Methoxycoumarin-4-yl)methyl-caged cGMP (axial)]

- saturation concentration [5]: 25 µM
Molecule: (7-Methoxycoumarin-4-yl)methyl-caged cGMP [(7-Methoxycoumarin-4-yl)methyl-caged cGMP (equatorial)]
